# Results published in patent publication US20140303251A1, “Methods Of Treating Acute Kidney Injury With Retinoic Acid” (Beth Israel Deaconess Medical Center, Inc., priority 2011, published 2014).
# Assays:
# [1] = system: primary cultures of renal proximal tubule epithelial cells (RPTECs); assay: in vitro IRI model: primary RPTEC cultures, mineral oil overlay induced hypoxia followed by reperfusion, qPCR; type: cell-based, mice; settings: for CCL20 induction: Nur77 knockout RPTECs; for Nur77 levels (induction after ischemia-reperfusion): RPTECs, hypoxia by mineral oil overlay then reperfusion; for Nur77 levels (induction after ischemia-reperfusion) / Induction of Nr4a family members (Nor-1, Nurr1): vs vehicle; for Induction of Nr4a family members (Nor-1, Nurr1): both wild type and Nur77 knockout RPTEC cultures
# Experimental: (§1) Kidney tissues were snap frozen and stored at −80 deg C. until processing. The tissues were homogenized and total RNA was prepared using RNeasy kit (Qiagen). DNA contamination was eliminated by DNase digestion. The reverse transcribed cDNA was subjected to qPCR using a Sybr green based detection system (SA Bioscience). Relative levels of mRNA was normalized to GAPDH levels and quantified based on 2e-deltaCT method.
# Kidneys from 4-5 weeks old mice were harvested after perfusion with sterile PBS. Cortex was separated and minced into ˜1 mm3 pieces and digested using collagenase and soybean trypsin inhibitor for 30 min and 37 degC. The digested mix was spun down and filtered through 200 uM filter followed by a 70 uM filter. The tubules that are retained on the top of the 70 uM filter were collected and cultured in Renal life cell growth medium (Lifeline cell technology) on collagen coated plates. After 7 days of culturing, the cells were used for experiments. The purity of the culture was ascertained by staining for cytokeratin (Anti-cytokeratin antibody: Sigma). To induce ischemia reperfusion injury, confluent monolayer of RPTECs was overlayed with mineral oil for 1 h, followed by reperfusion with complete medium.
# Retinoic acid can antagonize Nur77 function by inhibiting its transcriptional induction, DNA binding and nuclear export^17,18. RXRs heterodimerize with Nur77 in response to cell death stimuli, promoting nuclear export and causing Bcl-2 dependent cytochrome c release and apoptosis. Ligand bound RXR inhibits Nur77 function either by retaining it in the nucleus or by inhibiting its transcription by an AP-1 dependent mechanism^18. Since Nur77 deficient mice were protected from renal IRI, whether pharmacologic antagonism of Nur77 by retinoic acid could be used to protect kidneys from acute injury was assessed. To determine whether retinoids could regulate Nur77-dependent signaling in renal epithelia, primary cultures of renal proximal tubule epithelial cells (RPTECs) were generated from either wild type or Nur77 knockout mice. RPTECs were treated with either vehicle or 9-cis-retinoic acid, and subjected to mineral oil overlay induced hypoxia, followed by reperfusion.
# renal IRI = assay: renal ischemia reperfusion injury (IRI) in mice, 9-cis retinoic acid given 4 h prior; type: in vivo; settings: for BUN (serum blood urea nitrogen) / serum creatinine / tubular / renal injury score / apoptotic cells in kidney (TUNEL) / neutrophil infiltration in kidney / CXCL2 gene expression level in kidney: 10 mg/kg 4 h prior to IRI; for BUN (serum blood urea nitrogen) / serum creatinine: 24 h after IRI; for BUN (serum blood urea nitrogen) / serum creatinine / tubular / renal injury score / apoptotic cells in kidney (TUNEL) / neutrophil infiltration in kidney / CXCL2 gene expression level in kidney / Nor-1 and Nurr-1 levels in kidney / Nur77 gene expression level in kidney: vs vehicle; for BUN (serum blood urea nitrogen): P<0.0001; for serum creatinine: P<0.002; for apoptotic cells in kidney (TUNEL) / neutrophil infiltration in kidney: P<0.001; for CXCL2 gene expression level in kidney: P<0.02; for Nor-1 and Nurr-1 levels in kidney / Nur77 gene expression level in kidney: 10 mg/kg body weight 4 h prior to IRI, 24 hours after injury, qPCR; for localization pattern of Nur77: 24 h post IRI, immunochemistry
# Experimental: Male mice of age 8-10 weeks were used in this study. Animals were anesthetized using xylazine and ketamine and kept on 37° C. warming pads. The kidneys were exposed by flank incision and both kidney pedicles were clamped for 45 minutes using non-traumatic microaneurysm clamps (Roboz, Rockville, Md.). Reperfusion was confirmed visually and the incision was sutured. Body temperature of the animals was maintained at 37° C. throughout the procedure.
# 9-cis retinoic acid in DMSO was administered to animals at a dose of 10 mg/kg body weight, 4 h prior to the IRI procedure. The final concentration of DMSO was 25% (v/v). Control animals received 25% (v/v) DMSO.
# Kidneys from animals subjected to IRI were harvested. Transverse sections of the kidneys were either snap frozen in OCT or fixed in 10% formalin and processed for paraffin embedded sections. Renal morphology was assessed by PAS staining (Periodic acid-Schiff reagent). Neutrophil infiltration was assessed by staining formalin fixed paraffin embedded (FFPE) sections with anti-Ly6G (BD). Infiltrating neutrophils were counted in 3 independent HPFs (400×) per section per animal and represented as mean±SEM. Nur77 staining was carried out on FFPE sections after antigen retrievel using anti-mouse Nur77 antibody (Ebioscience). Endogenous mouse Ig was blocked using M.O.M kit from vector labs.
# Kidney cell apoptosis was assessed by TUNEL staining using ApopTag® Peroxidase In Situ Apoptosis Detection Kit (Millipore). The apoptotic index was calculated as percentage of dead cells in 3 independent 400×HPF per section per animal by, counting both stained nuclei and total nuclei.
# Serum plasma was collected 24 h after ischemia reperfusion and stored at −80 deg C. until further processing. Serum creatinine was quantified using QuantiChrom™ Creatinine Assay Kit (Bioassays systems). Serum blood urea nitrogen levels were measured using Infinity Urea liquid stable reagent (Thermo fisher).
# as §1
# [2] = Nur77+/+ (wild type) RPTECs, listed as 9-cis-RA
structure (smiles),measurement,setting,value
CC1=C(/C=C/C(C)=C\C=C\C(C)=C\C(=O)O)C(C)(C)CCC1 [9-cis-retinoic acid],CCL20 levels,[1]; Nur77+/+ (wild type) RPTECs,very substantially reduced
same,Induction of CXCL2,[1]; Nur77+/+ (wild type) RPTECs,significantly attenuated
same,CCL20 levels,[1]; [2],reduced
same,Induction of CXCL2,[1]; [2],reduced
same,CCL20 induction,[1],no further effect
same,CCL20 induction,[1]; listed as 9-cis-RA,did not substantially reduce the expression level further
same,Induction of CXCL2,[1]; RPTECs from Nur77 knockout kidneys,no further inhibitory effect
same,Induction of CXCL2,"[1]; RPTECs from Nur77 knockout kidneys, listed as 9-cis-RA",did not substantially reduce the expression level further
same,Nur77 levels (induction after ischemia-reperfusion),[1],reduced by about half
same,Nur77 levels (induction after ischemia-reperfusion),[1]; listed as 9-cis-RA,attenuated the induction
same,"Induction of Nr4a family members (Nor-1, Nurr1)",[1],inhibited
same,"Induction of Nr4a family members (Nor-1, Nurr1)",[1]; listed as 9-cis-RA,attenuated the induction
same,BUN (serum blood urea nitrogen),renal IRI,reduced
same,BUN (serum blood urea nitrogen),renal IRI; listed as 9-cis-RA,significantly lower
same,serum creatinine,renal IRI,reduced
same,serum creatinine,renal IRI; listed as 9-cis-RA,significantly lower
same,tubular / renal injury score,renal IRI,improved
same,apoptotic cells in kidney (TUNEL),renal IRI,significantly less
same,neutrophil infiltration in kidney,renal IRI,much less
same,apoptotic cells in kidney (TUNEL),renal IRI; listed as 9-cis-RA,fewer apoptotic cells
same,neutrophil infiltration in kidney,renal IRI; listed as 9-cis-RA,fewer
same,CXCL2 gene expression level in kidney,renal IRI,Reduced
same,CXCL2 gene expression level in kidney,renal IRI; listed as 9-cis-RA,greatly diminished
same,tubular / renal injury score,renal IRI; listed as 9-cis-RA,less injured
same,Nor-1 and Nurr-1 levels in kidney,renal IRI,dramatically lower induction
same,Nur77 gene expression level in kidney,renal IRI,dramatically lower induction
same,Nor-1 and Nurr-1 levels in kidney,renal IRI; listed as 9-cis-RA,reduced
same,Nur77 gene expression level in kidney,renal IRI; listed as 9-cis-RA,significantly diminished
same,localization pattern of Nur77,renal IRI,cytoplasmic
same,localization pattern of Nur77,renal IRI; listed as 9 cis-RA,unaltered
same,overall level of Nur77 protein expression in kidney (immunochemistry),"renal IRI; mice that received 9-cis-retinoic acid, after renal IRI",dramatically reduced
same,transcript level of HIF-1 alpha,renal IRI; treatment prior to the induction of IRI,unchanged
